Source: article PMC6696413 (Molecules, 2019)
Like-named read-outs stand apart in the source and are kept apart here.

Legend:
Format in all cases: biochemical
[1] = target: tyrosinase; test: Tyrosinase inhibitory activity experiment (L-tyrosine, 405 nm); conditions: 96-well plate, PBS, L-tyrosine substrate, 37 °C 30 min; kojic acid positive control
Procedure: In a 96-well plate, group A was added 80 μL of 0.1 mol/L PBS, 50 μL of solvent (solvent used to dissolve the sample: DMSO) and 50 μL of tyrosinase as a blank group (n = 2); group B was added 130 μL of 0.1 mol/L PBS and 50 μL of solvent as blank background group (n = 2); group C was added with 80 μL of 0.1 mol/L PBS, 50 μL of the sample (standard solution dissolved in DMSO to the concentration of 1.0 mg/mL) and 50 μL of tyrosinase as the experimental group (n = 2); group D were added 130 μL of 0.1 mol/L PBS and 50 μL of the sample as experimental background group (n = 2); finally, 20 μL of substrate (L-tyrosine) was added to each well to trigger the reaction, and the 96-well plate was further incubated at 37 °C.

[2] = target: acetylcholinesterase (Homo sapiens, UniProt P22303); test: biochemical
Chain of acetylcholinesterase (P22303 32-614, species assumed): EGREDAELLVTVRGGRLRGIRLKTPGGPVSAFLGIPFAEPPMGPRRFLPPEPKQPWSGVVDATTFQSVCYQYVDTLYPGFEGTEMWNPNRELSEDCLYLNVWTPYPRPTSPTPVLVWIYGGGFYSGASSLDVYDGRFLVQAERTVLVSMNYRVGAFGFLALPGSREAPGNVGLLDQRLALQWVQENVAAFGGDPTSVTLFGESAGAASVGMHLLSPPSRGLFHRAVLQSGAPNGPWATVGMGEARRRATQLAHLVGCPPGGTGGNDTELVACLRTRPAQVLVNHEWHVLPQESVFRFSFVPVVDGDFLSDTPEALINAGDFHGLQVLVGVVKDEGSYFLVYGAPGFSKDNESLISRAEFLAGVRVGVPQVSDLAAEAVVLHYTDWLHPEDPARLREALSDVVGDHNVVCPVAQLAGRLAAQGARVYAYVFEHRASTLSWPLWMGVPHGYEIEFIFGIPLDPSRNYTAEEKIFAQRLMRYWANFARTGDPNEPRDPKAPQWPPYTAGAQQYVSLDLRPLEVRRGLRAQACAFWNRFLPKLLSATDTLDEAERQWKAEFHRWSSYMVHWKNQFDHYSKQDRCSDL

[3] = target: α-glucosidase; test: α-Glucosidase inhibitory activity experiment (PNPG, 405 nm); conditions: 96-well plate, PBS pH 7.4, 37 °C, PNPG substrate; acarbose positive control
Procedure: In a 96-well plate, group A was added 20 μL of 0.1 mol/L PBS (phosphate buffered saline (pH 7.4)), 20 μL of the sample (standard solution dissolved in DMSO to the concentration of 1.0 mg/mL) and 20 μL of α-glucosidase as a sample group (n = 3); Group B was added 40 μL of 0.1 mol/L PBS and 20 μL of the sample as the control group (n = 3); Group C was added 40 μL 0.1 mol/L PBS and 20 μL α-glucosidase as blank group (n = 3); after incubation for 15 min at 37 °C, then 2.5 mmol/L PNPG glycoside was added to each well and incubated at 37 °C. The reaction was stopped by adding 80 μL of a 0.2 mol/L Na2CO3 solution to each well after 15 min.

[4] = 96-well plate, PBS, ACTI and DTNB, 37 °C 20 min, huperzine A positive control, read-out: Acetylcholinesterase inhibitory activity IC50 (converted)

For `O=c1cc(-c2ccc(O)c(O)c2)oc2cc(O)cc(O)c12` [Compound 1, luteolin], the “Tyrosinase inhibitory activity IC50” value [1] was 1643.11 µg/mL and the IC50 [2] was 1660 µM.

Work on `O=c1c(O)c(-c2ccc(O)cc2)oc2cc(O)cc(O)c12` [Compound 3, kaempferol] yielded an IC50 [2] of 1760 µM.

`C[C@@H]1O[C@@H](OC[C@H]2O[C@@H](Oc3c(-c4ccc(O)c(O)c4)oc4cc(O)cc(O)c4c3=O)[C@H](O)[C@@H](O)[C@@H]2O)[C@H](O)[C@H](O)[C@H]1O` [Compound 7, rutin] was tested, and the IC50 [2] was 806 µM.

With `CC(C)[C@@H](C)/C=C/[C@@H](C)[C@H]1CC[C@@H]2[C@]1(C)CC[C@H]1[C@]23C=C[C@]2(C[C@@H](O)CC[C@]12C)OO3` [Compound 8, ergosterol peroxide] the “Tyrosinase inhibitory activity IC50” value [1] was 202.37 µg/mL, the “α-glucosidase activity inhibition IC50” value [3] was 452.50 µg/mL and the IC50 [2, 4] was 1170 µM.

`CC#CC#CC#CC#CC#CC(CO)O[C@@H]1O[C@H](CO)[C@@H](O)[C@H](O)[C@H]1O` (stereo partly drawn) [Compound 10, 2-β-D-glucopyranosyloxy-1-hydroxytrideca-3,5,7,9,11-pentayne] was tested, and the “α-glucosidase activity inhibition IC50” value [3] was 492.11 µg/mL and the IC50 [2, 4] was 1450 µM.

`COC1OC(CNC2C(OC)OC(CO)C(O)C2O)C(O)C(O)C1O` [Compound 11, α-D-Alt-p-OMe (N2-6) α-D-Gle-p-OMe] was tested, and the “Tyrosinase inhibitory activity IC50” value [1] was 302.42 µg/mL, the “α-glucosidase activity inhibition IC50” value [3] was 318.44 µg/mL and the IC50 [2, 4] was 1400 µM.

For `OCC1OC(OC2C(CO)OC(OC3C(CO)OC(OC4(CO)OC(CO)C(O)C4O)C(O)C3O)C(O)C2O)C(O)C(O)C1O` [Compound 12, O-α-D-glucopyranosyl-(1→4)-α-D-glucopyranosyl-(1→4)-α-D-glucopyranosyl-(1→2)-β-D-fructofuranoside], the “Tyrosinase inhibitory activity IC50” value [1] was 1750.08 µg/mL, the “α-glucosidase activity inhibition IC50” value [3] was 444.88 µg/mL and the IC50 [2, 4] was 761 µM.
